Results published in patent publication US11242337B2, “Compounds useful for treating gastrointestinal tract disorders” (Ardelyx, Inc., priority 2017, dated 2022).
Counter-ions that a name gives are not always drawn.

How the values were obtained:
NHE3 [1] = target: T1, NHE3 (Homo sapiens, UniProt P48764); assay: Cell-based assay of NHE-3 activity (persistent inhibition), human; conditions: human Persistence, 60 min incubation then washout
T1 construct: expressed in transfected cells
T1 sequence (P48764 26-834): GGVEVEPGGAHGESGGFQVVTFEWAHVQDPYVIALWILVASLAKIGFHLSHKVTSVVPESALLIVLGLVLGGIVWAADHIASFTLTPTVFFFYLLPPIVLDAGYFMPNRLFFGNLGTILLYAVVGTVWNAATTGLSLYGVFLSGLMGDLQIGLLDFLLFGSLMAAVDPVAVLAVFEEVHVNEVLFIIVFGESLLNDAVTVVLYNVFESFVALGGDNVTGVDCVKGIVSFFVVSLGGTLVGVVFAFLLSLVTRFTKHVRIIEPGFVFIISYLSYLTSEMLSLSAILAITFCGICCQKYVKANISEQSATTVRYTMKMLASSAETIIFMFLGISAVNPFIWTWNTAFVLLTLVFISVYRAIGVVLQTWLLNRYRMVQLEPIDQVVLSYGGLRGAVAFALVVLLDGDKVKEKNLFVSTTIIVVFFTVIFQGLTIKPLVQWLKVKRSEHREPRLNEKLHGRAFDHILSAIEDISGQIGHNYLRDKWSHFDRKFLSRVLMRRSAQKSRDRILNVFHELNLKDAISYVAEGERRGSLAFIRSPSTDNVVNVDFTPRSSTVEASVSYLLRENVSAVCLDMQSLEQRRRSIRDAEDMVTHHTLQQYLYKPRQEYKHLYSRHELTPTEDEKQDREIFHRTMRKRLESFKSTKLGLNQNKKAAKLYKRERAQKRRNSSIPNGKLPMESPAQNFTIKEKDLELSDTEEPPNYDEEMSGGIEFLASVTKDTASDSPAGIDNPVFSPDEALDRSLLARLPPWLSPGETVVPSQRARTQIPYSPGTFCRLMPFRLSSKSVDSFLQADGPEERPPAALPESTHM
T1 sequence (Q99653 2-195 partner limits assumed): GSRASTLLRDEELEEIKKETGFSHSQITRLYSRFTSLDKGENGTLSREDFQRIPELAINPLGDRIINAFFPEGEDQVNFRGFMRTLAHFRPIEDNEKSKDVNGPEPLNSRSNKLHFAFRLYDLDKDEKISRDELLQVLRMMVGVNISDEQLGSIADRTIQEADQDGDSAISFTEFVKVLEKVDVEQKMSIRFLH
Outline: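 Persistent inhibition: compound (0-30 μM, 60 min, RT, NaCl-HEPES pH 7.4) removed before assay. Human NHE3/NHERF2 PS120 cells were then BCECF-loaded during NH4Cl pulse (30 min, 37 °C), acidified in Na+-free buffer, and Na+ added 10 min after washout; antiport measured as initial fluorescence-ratio change per minute.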

NHE3 [2] = target: T1, NHE3; assay: Cell-based assay of NHE-3 activity (pre-incubation inhibition), human; conditions: human Preincubation
Outline: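 Activity read as initial rate of BCECF fluorescence ratio change per minute (ex 439/505, em 538 nm) following NH4Cl prepulse acid loading. Compound (0–30 μM) present during 10 min Na+-free acidification at room temperature; cells were PS120 fibroblasts stably co-expressing human NHE3 and NHERF2.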

% inhibition (NHE3 [1])	% inhibition (NHE3 [2])	pIC50 (NHE3 [1])	pIC50 (NHE3 [2]; 0-30 μM test compound)	IC50 (NHE3 [1]) [nM]	IC50 (NHE3 [2]; 0-30 μM test compound) [nM]	SMILES
C (>70%)	C (>70%)	–	–	–	–	Cc1cc(S(=O)(=O)NCCOCCOCCNC(=O)NCCCCNC(=O)NCCOCCOCCNS(=O)(=O)c2cc(C)c(O[C@H]3c4cc(Cl)cc(Cl)c4C[C@@H]3N3CCC[C@@H](N)C3)cc2F)c(F)cc1O[C@H]1c2cc(Cl)cc(Cl)c2C[C@@H]1N1CCC[C@@H](N)C1 [Example 89, 3-[2-(2-[2-[(4-[[(1S,2S)-2-[(3R)-3-Aminopiperidin-1-yl]-4,6-dichloro-2,3-dihydro-1H-inden-1-yl]oxy]-2-fluoro-5-methylbenzene)sulfonamido]ethoxy]ethoxy)ethyl]-1-[4-([[2-(2-[2-[(4-[[(1S,2S)-2-[(3R)-3-aminopiperidin-1-yl]-4,6-dichloro-2,3-dihydro-1H-inden-1-yl]oxy]-2-fluoro-5-methylbenzene)sulfonamido]ethoxy]ethoxy)ethyl]carbamoyl]amino)butyl]urea; bis(trifluoroacetic acid)]
B (40-70%)	C (>70%)	C (NHE3 pIC50 > 7)	C (NHE3 pIC50 > 7)	–	–	Cc1cc(S(=O)(=O)NCCOCCOCCNC(=O)NCCCCNC(=O)NCCOCCOCCNS(=O)(=O)c2ccc(O[C@H]3c4cc(Cl)cc(Cl)c4C[C@@H]3N3CCC[C@@H](N)C3)c(C)c2)ccc1O[C@H]1c2cc(Cl)cc(Cl)c2C[C@@H]1N1CCC[C@@H](N)C1 [Example 1, 1-[2-(2-[2-[(4-[[(1S,2S)-2-[(3R)-3-Aminopiperidin-1-yl]-4,6-dichloro-2,3-dihydro-1H-inden-1-yl]oxy]-3-methylbenzene)sulfonamido]ethoxy]ethoxy)ethyl]-3-[4-([[2-(2-[2-([4-[[(1S,2S)-2-[(3R)-3-aminopiperidin-1-yl]-4,6-dichloro-2,3-dihydro-1H-inden-1-yl]oxy]-3-methylbenzene)sulfonamido]ethoxy]ethoxy)ethyl]carbamoyl]amino)butyl]urea]
B (40-70%)	B (40-70%)	C (NHE3 pIC50 > 7)	C (NHE3 pIC50 > 7)	–	–	Cc1cc(S(=O)(=O)NCCOCCOCCNC(=O)NCCCCNC(=O)NCCOCCOCCNS(=O)(=O)c2ccc(O[C@H]3c4cc(Cl)cc(F)c4C[C@@H]3N(C)C)c(C)c2)ccc1O[C@H]1c2cc(Cl)cc(F)c2C[C@@H]1N(C)C [Example 16]
B (40-70%)	B (40-70%)	–	C (NHE3 pIC50 > 7)	100 to 1000	–	Cc1cc(S(=O)(=O)NCCCCCCCCNC(=O)NCCCCNC(=O)NCCCCCCCCNS(=O)(=O)c2ccc(O[C@H]3c4cc(Cl)cc(Cl)c4C[C@@H]3N3CCC[C@@H](N)C3)c(C)c2)ccc1O[C@H]1c2cc(Cl)cc(Cl)c2C[C@@H]1N1CCC[C@@H](N)C1 [Example 63, 3-[8-[(4-[[(1S,2S)-2-[(3R)-3-Aminopiperidin-1-yl]-4,6-dichloro-2,3-dihydro-1H-inden-1-yl]oxy]-3-methylbenzene)sulfonamido]octyl]-1-[4-[([8-[(4-[[(1S,2S)-2-[(3R)-3-aminopiperidin-1-yl]-4,6-dichloro-2,3-dihydro-1H-inden-1-yl]oxy]-3-methylbenzene)sulfonamide]octyl]carbamoyl)amino]butyl]urea]
A (NHE3 < 40%)	A (NHE3 < 40%)	A (NHE3 pIC50 < 6)	A (NHE3 pIC50 < 6)	–	–	Cc1cc(S(=O)(=O)NCCOCCOCCNC(=O)NCCCCNC(=O)NCCOCCOCCNS(=O)(=O)c2ccc(O[C@H]3c4cc(Cl)cc(C(F)(F)F)c4C[C@@H]3N(C)C)c(C)c2)ccc1O[C@H]1c2cc(Cl)cc(C(F)(F)F)c2C[C@@H]1N(C)C [Example 19, 3-[2-(2-[2-[(4-[[(1S,2S)-6-Chloro-2-(dimethylamino)-4-(trifluoromethyl)-2,3-dihydro-1H-inden-1-yl]oxy]-3-methylbenzene)sulfonamido]ethoxy]ethoxy)ethyl]-1-[4-([[2-(2-[2-[(4-[[(1S,2S)-6-chloro-2-(dimethylamino)-4-(trifluoromethyl)-2,3-dihydro-1H-inden-1-yl]oxy]-3-methylbenzene)sulfonamido]ethoxy]ethoxy)ethyl]carbamoyl]amino)butyl]urea]
C (>70%)	C (>70%)	C (NHE3 pIC50 > 7)	C (NHE3 pIC50 > 7)	–	–	Cc1cc(S(=O)(=O)NCCOCCOCCNC(=O)NCCCCNC(=O)NCCOCCOCCNS(=O)(=O)c2ccc(O[C@H]3c4cc(Cl)cc(Cl)c4C[C@@H]3N(C)C)c(C)c2)ccc1O[C@H]1c2cc(Cl)cc(Cl)c2C[C@@H]1N(C)C [Example 22, 3-[2-(2-[2-[(4-[[(1S,2S)-4,6-Dichloro-2-(dimethylamino)-2,3-dihydro-1H-inden-1-yl]oxy]-3-methylbenzene)sulfonamido]ethoxy]ethoxy)ethyl]-1-[4-([[2-(2-[2-[(4-[[(1S,2S)-4,6-dichloro-2-(dimethylamino)-2,3-dihydro-1H-inden-1-yl]oxy]-3-methylbenzene)sulfonamido]ethoxy]ethoxy)ethyl]carbamoyl]amino)butyl]urea dihydrochloride]
C (>70%)	C (>70%)	–	–	< 100	< 100	N[C@@H]1CCCN([C@H]2Cc3c(Cl)cc(Cl)cc3[C@@H]2Oc2ccc(S(=O)(=O)NCCOCCOCCn3cc(CNC(=O)NCCCCNC(=O)NCc4cn(CCOCCOCCNS(=O)(=O)c5ccc(O[C@H]6c7cc(Cl)cc(Cl)c7C[C@@H]6N6CCC[C@@H](N)C6)cc5)nn4)nn3)cc2)C1 [Example 56, 1-([1-[2-(2-[2-[(4-[[(1S,2S)-2-[(3R)-3-Aminopiperidin-1-yl]-4,6-dichloro-2,3-dihydro-1H-inden-1-yl]oxy]benzene)sulfonamido]ethoxy]ethoxy)ethyl]-1H-1,2,3-triazol-4-yl]methyl)-3-(4-[[([1-[2-(2-[2-[(4-[[(1S,2S)-2-[(3R)-3-aminopiperidin-1-yl]-4,6-dichloro-2,3-dihydro-1H-inden-1-yl]oxy]benzene)sulfonamido]ethoxy]ethoxy)ethyl]-1H-1,2,3-triazol-4-yl]methyl)carbamoyl]amino]butyl)urea]
C (>70%)	C (>70%)	C (NHE3 pIC50 > 7)	C (NHE3 pIC50 > 7)	–	–	N[C@@H]1CCCN([C@H]2Cc3c(Cl)cc(Cl)cc3[C@@H]2Oc2ccc(S(=O)(=O)NCCOCCOCCNC(=O)NCCCCNC(=O)NCCOCCOCCNS(=O)(=O)c3ccc(O[C@H]4c5cc(Cl)cc(Cl)c5C[C@@H]4N4CCC[C@@H](N)C4)cc3Cl)c(Cl)c2)C1 [Example 104]
A (NHE3 < 40%)	A (NHE3 < 40%)	A (NHE3 pIC50 < 6)	A (NHE3 pIC50 < 6)	–	–	Cc1cc(S(=O)(=O)NCCOCCOCCNC(=O)NCCCCNC(=O)NCCOCCOCCNS(=O)(=O)c2ccc(O[C@H]3c4cc(Cl)cc(OC(F)(F)F)c4C[C@@H]3N(C)C)c(C)c2)ccc1O[C@H]1c2cc(Cl)cc(OC(F)(F)F)c2C[C@@H]1N(C)C [Example 20, 1-[2-(2-[2-[(4-[[(1S,2S)-6-Chloro-2-(dimethylamino)-4-(trifluoromethoxy)-2,3-dihydro-1H-inden-1-yl]oxy]-3-methylbenzene)sulfonamido]ethoxy]ethoxy)ethyl]-3-[4-([[2-(2-[2-[(4-[[(1S,2S)-6-chloro-2-(dimethylamino)-4-(trifluoromethoxy)-2,3-dihydro-1H-inden-1-yl]oxy]-3-methylbenzene)sulfonamido]ethoxy]ethoxy)ethyl]carbamoyl]amino)butyl]urea]
A (NHE3 < 40%)	B (40-70%)	–	–	–	–	CN(C)[C@H]1Cc2c(OC(F)(F)F)cc(Cl)cc2[C@@H]1Oc1ccc(S(=O)(=O)NCCOCCOCCNC(=O)NCCCCNC(=O)NCCOCCOCCNS(=O)(=O)c2ccc(O[C@H]3c4cc(Cl)cc(OC(F)(F)F)c4C[C@@H]3N(C)C)cc2)cc1 [Example 14, 1-[2-(2-[2-[(4-[[(1S,2S)-6-Chloro-2-(dimethylamino)-4-(trifluoromethoxy)-2,3-dihydro-1H-inden-1-yl]oxy]benzene)sulfonamido]ethoxy]ethoxy)ethyl]-3-[4-([[2-(2-[2-[(4-[[(1S,2S)-6-chloro-2-(dimethylamino)-4-(trifluoromethoxy)-2,3-dihydro-1H-inden-1-yl]oxy]benzene)sulfonamido]ethoxy]ethoxy)ethyl]carbamoyl]amino)butyl]urea]
